Source: patent US20260274833A1 (NiKang Therapeutics, Inc., priority 2022, published 2026)

Molecular target: T1, CDK2 (Homo sapiens, UniProt P24941)
T1 construct: endogenous in cells; host or cells: OVCAR3 cells
Assay: Phospho-RB measurement in OVCAR3 cells (HTRF phospho-RB cellular kit)
Assay type: cell-based
Settings: inhibition of RB phosphorylation at S807/811 (HTRF, TR-FRET ratio 665/620), 24 h compound treatment, 0.3 to 10,000 nM
In short: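 IC50 came from a four-parameter logistic fit of the DMSO-normalized TR-FRET ratio (665/620 nm). That ratio reflects RB phosphorylation at S807/811, read with an HTRF antibody pair 4 h after adding lysate at room temperature.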

Row | Structure (SMILES) | IC50 [µM]
1 | CC(C)(C)OC(=O)N1CCN(S(=O)(=O)Nc2cccc(-c3nc(C(C)(C)C)sc3-c3ccnc(NC4CCN(S(C)(=O)=O)CC4)n3)c2F)c2ccccc21 [Example 101, tert-butyl 4-(N-(3-(2-(tert-butyl)-5-(2-((1-(methylsulfonyl)piperidin-4-yl)amino)-pyrimidin-4-yl)thiazol-4-yl)-2-fluorophenyl)-sulfamoyl)-3,4-dihydroquinoxaline-1(2H)-carboxylate] | 1.83
2 | CC(C)(C)c1nc(-c2cccc(NS(=O)(=O)N3CCNc4ccccc4C3)c2F)c(-c2ccnc(NC3CCN(S(C)(=O)=O)CC3)n2)s1 [Example 102, N-(3-(2-(tert-butyl)-5-(2-((1-(methylsulfonyl)piperidin-4-yl)amino)-pyrimidin-4-yl)thiazol-4-yl)-2-fluorophenyl)-1,2,3,5-tetrahydro-4H-benzo[e] [1,4]diazepine-4-sulfonamide] | 0.281
3 | CC(C)(C)c1nc(-c2cccc(NS(=O)(=O)N3Cc4ccncc4C3)c2F)c(-c2ccnc(NC3CCN(S(C)(=O)=O)CC3)n2)s1 [Example 103, N-(3-(2-(tert-butyl)-5-(2-((1-(methylsulfonyl)piperidin-4-yl)amino)-pyrimidin-4-yl)thiazol-4-yl)-2 fluorophenyl)-1,3-dihydro-2H-pyrrolo[3,4-c] pyridine-2-sulfonamide] | 0.142
4 | CC(C)(C)c1nc(-c2cccc(NS(=O)(=O)N3CCc4c(C#N)cccc43)c2F)c(-c2ccnc(NC3CCN(S(C)(=O)=O)CC3)n2)s1 [Example 104, N-(3-(2-(tert-butyl)-5-(2-((1-(methylsulfonyl)piperidin-4-yl)amino)-pyrimidin-4-yl)thiazol-4-yl)-2-fluorophenyl)-4-cyanoindoline-1-sulfonamide] | 0.082
5 | CN(C)CCN(C)S(=O)(=O)N1CCC(Nc2nccc(-c3sc(C(C)(C)C)nc3-c3cccc(NS(=O)(=O)N4CCOc5ccccc5C4)c3F)n2)CC1 [Example 105, N-(3-(2-(tert-butyl)-5-(2-((1-(N-(2-(dimethyl-amino)ethyl)-N-methyl-sulfamoyl)piperidin-4-yl)amino)-pyrimidin-4-yl)thiazol-4-yl)-2-fluoro-phenyl)-2,3-dihydrobenzo [f][1,4]-oxazepine-4 (5H)-sulfonamide] | 0.215
6 | CC(C)(C)c1nc(-c2cccc(NS(=O)(=O)N3CCNc4ccccc43)c2F)c(-c2ccnc(NC3CCN(S(C)(=O)=O)CC3)n2)s1 [Example 106, N-(3-(2-(tert-butyl)-5-(2-((1-(methylsulfonyl)piperidin-4-yl)amino)-pyrimidin-4-yl)thiazol-4-yl)-2-fluorophenyl)-3,4-dihydroquinoxaline-1(2H)-sulfonamide] | 0.263
7 | CN(C1CCC1)S(=O)(=O)Nc1cccc(-c2nc(C(C)(C)C)sc2-c2ccnc(NC3CCN(S(=O)(=O)N4CCNCC4)CC3)n2)c1F [Example 107, N-(3-(2-(tert-butyl)-5-(2-((1-(piperazin-1-yl-sulfonyl)piperidin-4-yl)amino)-pyrimidin-4-yl)thiazol-4-yl)-2-fluoro-phenyl)(N-methyl-N-cyclo-butylamine)-sulfonamide] | 0.919
8 | CN(C1CC1)S(=O)(=O)Nc1cccc(-c2nc(C(C)(C)C)sc2-c2ccnc(NC3CCN(S(=O)(=O)N4CCNCC4)CC3)n2)c1F [Example 108, N-(3-(2-(tert-butyl)-5-(2-((1-(piperazin-1-yl-sulfonyl)piperidin-4-yl)amino)-pyrimidin-4-yl)thiazol-4-yl)-2-fluoro-phenyl)(N-methyl-N-cyclopro-pylamine)-sulfonamide] | 2.07
9 | CC1c2ccccc2CN1S(=O)(=O)Nc1cccc(-c2nc(C(C)(C)C)sc2-c2ccnc(NC3CCN(S(C)(=O)=O)CC3)n2)c1F (stereo not shown) [Example 109, N-(3-(2-(tert-butyl)-5-(2-((1-(methylsulfonyl)-piperidin-4-yl)amino)-pyrimidin-4-yl)thiazol-4-yl)-2-fluoro-phenyl)-1-methylisoindoline-2-sulfonamide] | 0.21
10 | CC(C)(C)c1nc(-c2cccc(NS(=O)(=O)N3CCOc4ncccc4C3)c2F)c(-c2ccnc(NC3CCN(S(C)(=O)=O)CC3)n2)s1 [Example 110, N-(3-(2-(tert-butyl)-5-(2-((1-(methylsulfonyl)-piperidin-4-yl)amino)-pyrimidin-4-yl)thiazol-4-yl)-2-fluoro-phenyl)-2,3-dihydropyrido [3,2-f][1,4]-oxazepine-4 (5H)-sulfonamide] | 1.03
11 | CN1CCN(S(=O)(=O)N2CCC(Nc3nccc(-c4sc(C(C)(C)C)nc4-c4cccc(NS(=O)(=O)N(C)C5CCC5)c4F)n3)CC2)CC1 [Example 111, N-(3-(2-(tert-butyl)-5-(2-((1-((4-methylpiperazin-1-yl)sulfonyl)piperidin-4-yl)amino)pyrimidin-4-yl)thiazol-4-yl)-2-fluorophenyl)-(N-methyl-N-cyclobutylamine)-sulfonamide] | 0.908
12 | CN1CCN(S(=O)(=O)N2CCC(Nc3nccc(-c4sc(C(C)(C)C)nc4-c4cccc(NS(=O)(=O)N(C)C5CC5)c4F)n3)CC2)CC1 [Example 112, N-(3-(2-(tert-butyl)-5-(2-((1-((4-methylpiperazin-1-yl)sulfonyl)piperidin-4-yl)amino)pyrimidin-4-yl)thiazol-4-yl)-2-fluorophenyl)-(N-methyl-N-cyclopropylamine)-sulfonamide] | 1.21
13 | CC(C)(C)c1nc(-c2cccc(NS(=O)(=O)N3Cc4ccccc4C3)c2F)c(-c2ccnc(NC3CCN(S(=O)(=O)N4CCNCC4)CC3)n2)s1 [Example 113, N-(3-(2-(tert-butyl)-5-(2-((1-(piperazin-1-ylsulfonyl)piperidin-4-yl)amino)-pyrimidin-4-yl)thiazol-4-yl)-2-fluoro-phenyl)isoindoline-2-sulfonamide] | 0.12
14 | CC(C)(C)c1nc(-c2cccc(NS(=O)(=O)N3CCc4ccccc4C3)c2F)c(-c2ccnc(NC3CCN(S(=O)(=O)N4CCNCC4)CC3)n2)s1 [Example 114, N-(3-(2-(tert-butyl)-5-(2-((1-(piperazin-1-ylsulfonyl)piperidin-4-yl)amino)-pyrimidin-4-yl)thiazol-4-yl)-2-fluoro-phenyl)-3,4-dihydro-isoquinoline-2(1H)-sulfonamide] | 0.276
15 | CC(C)(C)c1nc(-c2cccc(NS(=O)(=O)N3CCOc4ccccc4C3)c2F)c(-c2ccnc(NC3CCN(S(=O)(=O)N4CCNCC4)CC3)n2)s1 [Example 115, N-(3-(2-(tert-butyl)-5-(2-((1-(piperazin-1-ylsulfonyl)piperidin-4-yl)amino)-pyrimidin-4-yl)thiazol-4-yl)-2-fluorophenyl)-2,3-dihydrobenzo [f][1,4]-oxazepine-4(5H)-sulfonamide] | 0.636
16 | CC(C)(C)c1nc(-c2cccc(NS(=O)(=O)N3CCNc4ccccc4C3)c2F)c(-c2ccnc(NC3CCN(S(=O)(=O)N4CCNCC4)CC3)n2)s1 [Example 116, N-(3-(2-(tert-butyl)-S-(2-((1-(piperazin-1-ylsulfonyl)piperidin-4-yl)amino)-pyrimidin-4-yl)thiazol-4-yl)-2-fluorophenyl)-1,2,3,5-tetrahydro-4H-benzo[e][1,4] diazepine-4-sulfonamide] | 0.39
17 | CC(C)(C)c1nc(-c2cccc(NS(=O)(=O)N3CCc4ccc(C#N)cc43)c2F)c(-c2ccnc(NC3CCN(S(C)(=O)=O)CC3)n2)s1 [Example 118, N-(3-(2-(tert-butyl)-5-(2-((1-(methylsulfonyl)-piperidin-4-yl)amino)-pyrimidin-4-yl)thiazol-4-yl)-2-fluorophenyl)-6-cyanoindoline-1-sulfonamide] | 0.0669
18 | COc1ccc2c(c1)CN(S(=O)(=O)Nc1cccc(-c3nc(C(C)(C)C)sc3-c3ccnc(NC4CCN(S(=O)(=O)N5CCNCC5)CC4)n3)c1F)C2 [Example 119, N-(3-(2-(tert-butyl)-5-(2-((1-(piperazin-1-ylsulfonyl)piperidin-4-yl)amino)-pyrimidin-4-yl)thiazol-4-yl)-2-fluoro-phenyl)-5-methoxy-isoindoline-2-sulfonamide] | 0.397
19 | CC(C)(C)c1nc(-c2cccc(NS(=O)(=O)N3CCc4ccc(C#N)cc43)c2F)c(-c2ccnc(NC3CCN(S(=O)(=O)N4CCNCC4)CC3)n2)s1 [Example 120, N-(3-(2-(tert-butyl)-5-(2-((1-(piperazin-1-ylsulfonyl)piperidin-4-yl)amino)-pyrimidin-4-yl)thiazol-4-yl)-2-fluorophenyl)-6-cyanoindoline-1-sulfonamide] | 0.0869
20 | CN(C)CCN(C)S(=O)(=O)N1CCC(Nc2nccc(-c3sc(C(C)(C)C)nc3-c3cccc(NS(=O)(=O)N4Cc5cccnc5C4)c3F)n2)CC1 [Example 121, N-(3-(2-(tert-butyl)-5-(2-((1~(N-(2-(dimethylamino)ethyl)-N-methylsulfamoyl)-piperidin-4-yl)amino)-pyrimidin-4-yl)thiazol-4-yl)-2-fluoro-phenyl)-5,7-dihydro-6H-pyrrolo[3,4-b]-pyridine-6-sulfonamide] | 0.265
21 | CN(C)CCN(C)S(=O)(=O)N1CCC(Nc2nccc(-c3sc(C(C)(C)C)nc3-c3cccc(NS(=O)(=O)N4CCc5ccc(C#N)cc54)c3F)n2)CC1 [Example 122, N-(3-(2-(tert-butyl)-5-(2-((1-(N-(2-(dimethylamino)ethyl)-N-methylsulfamoyl)-piperidin-4-yl)amino)-pyrimidin-4-yl)thiazol-4-yl)-2-fluoro-phenyl)-6-cyanoindoline-1-sulfonamide] | 0.054
22 | CN(C)CCN(C)S(=O)(=O)N1CCC(Nc2nccc(-c3sc(C(C)(C)C)nc3-c3cccc(NS(=O)(=O)N4CCc5c(C#N)cccc54)c3F)n2)CC1 [Example 123, N-(3-(2-(tert-butyl)-5-(2-((1-(N-(2-(dimethylamino)ethyl)-N-methylsulfamoyl)-piperidin-4-yl)amino)-pyrimidin-4-yl)thiazol-4-yl)-2-fluoro-phenyl)-4-cyanoindoline-1-sulfonamide] | 0.0752
